# Source: publication PMC10244169, “Psychedelics promote plasticity by directly binding to BDNF receptor TrkB” (Nature Neuroscience, 2023)
# B1: TrkB TMD (transmembrane residues of human TrkB, T423-G466) (domain or fragment, UniProt Q16620 423-466, looked up)
# chain: TDKTGREHLSVYAVVVIASVVGFCLLVMLFLLKLARHSKFGMKG
# notes: human TrkB, transmembrane residues T423-G466, UniProt Q16620; 15N- or 15N,13C-labelled; Cloned by NdeI and HindIII into pGEMEX1
# Legend:
# TrkB [1] = target: T1, TrkB (Rattus norvegicus, UniProt Q63604); assay: biochemical; format: binding; settings: for displacement of ^3H-LSD from TrkB: 1 nM to 10 µM of drug; for K (one phase exponential decay, best-fit) / Plateau (one phase exponential decay, best-fit) / Span (one phase exponential decay, best-fit): ext fig 1h
# T1 construct: expressed in transfected cells; host or cells: HEK293T
# [2] = Supplementary Table 3 legend; source not stated; cited from earlier work
# TrkB [3] = target: T1, TrkB; assay: Competition binding with biotinylated R,R-HNK
# Experimental: Binding assays were performed as previously described with minor modifications. […] Samples from mouse embryo (E18) brains were also lysed, vortexed, sonicated and centrifuged for binding assays. Plates were then washed with PBS. […] For the competition binding assays with biotinylated R,R-HNK, the amino-biotinylation of R,R-HNK was performed using a commercial kit (Thermo Scientific, EZ-Link NHS-PEG4 Biotinylation Kit, 21455) and the reaction monitored by MS. A mixture of biotinylated R,R-HNK (10 µM) and unlabeled compounds (1 pM to 10 µM) in PBS was added to the 96-well plates containing the immunoprecipitated TrkB and incubated for 1 h at room temperature. […] Luminescence was determined via streptavidin conjugated with horseradish peroxidase (HRP; Thermo Fisher Scientific, 21126; 1:5,000, 1 h at room temperature) in reaction with the Pierce ECL substrate (Thermo Fisher Scientific, 32106). Luminescence from blank wells that contained all reagents but the sample lysates was used to determine nonspecific binding. To obtain the binding curves, results from binding assays were fitted to the equation of specific binding with Hill slope from GraphPad Prism 9.2. To calculate koff values, results were fitted to the equation of dissociation of one phase exponential decay from GraphPad Prism 9.2.
# TrkB (WT) dimerization = target: T2, TrkB (WT) dimerization (Rattus norvegicus, UniProt Q63604); assay: Split-luciferase PCA of TrkB dimerization in N2a cells; format: cell-based; settings: ketanserin 100 nM, M100907 100 nM or TrkB.FC 200 ng ml^−1, 10 min before
# T2 construct: expressed in transfected cells; host or cells: N2a
# Experimental: Ketanserin, M100907 and TRKB.FC were added to the media 10 min before treatment. The PCA method was performed as previously described[11],[75],[76]. Split humanized Gaussia princeps luciferase (hGLuc) was cloned on the C-terminus of the reporter proteins TrkB (WT and Y433F) and lipid raft Fyn. If the reporter proteins that carry complementary halves of the luciferase interact, the enzyme can refold in its functional conformation and, upon addition of its substrate, produce luminescence proportionally to the amount of reporter proteins interacting at a given time. N2a cells were seeded in 96-well plates with opaque walls and transparent bottom (PerkinElmer, ViewPlate 96). Cells were transfected with Lipofectamine 2000 according to the manufacturer’s instructions 24 h post-plating with the PCA pair plasmids: phGLuc(1C)-TrkB(WT) or the mutant phGLuc(1C)-TrkB(Y433F) and phGLuc(2 C)-TrkB(WT) for the dimerization experiments; phGLuc(1C)-lipid raft Fyn and phGLuc(2C)-TrkB(WT) or phGLuc(2C)-TrkB(Y433F) for the lipid raft localization experiments. Forty-eight hours post transfection, cells were treated (40 min, 37 °C) in phenol red-free Dulbecco’s modified Eagle medium without serum. […] The PCA signal was detected with the substrate for the luciferase, native coelenterazine, which was injected into each well directly in the plate reader at a final concentration of […].
# [4] = test system: dendritic arbor complexity of neuronal cultures; parameters: method as in PMID 29898390; settings: cultured neurons; cited from earlier work
# TrkB [5] = assay: Western blot of TrkB protein expression in N2a cells; format: cell-based; settings: WT and Y433F^+/−
# Experimental: In a separate set of experiments to examine the effect of 5-HT2A activation, M100907 (100 nM) was administered as a 10 min pretreatment and remained in the medium for the rest of the experiment. Next, cells were lysed and centrifuged. […] The co-immunoprecipitation was carried out as previously described[11],[23],[24] with minor modifications. Briefly, Magnetic Dynabeads Protein G (Invitrogen, 10004D) were coated with anti-TrkB antibody (R&D Systems, AF1494) at 200 ng of antibody per 1 µl of beads in rotation (2 h, 4 °C). Finally, lysates were mixed with the coated beads (100 µg of total protein per 15 µl of beads) and incubated in rotation (overnight, 4 °C).
# Proteins were separated according to their molecular weight by SDS–PAGE and transferred to a polyvinylidene fluoride membrane. Membranes were incubated with the following primary antibodies (all 1:1,000 in 3% BSA in TBS-T, overnight, 4 °C): anti-TrkB (R&D Systems, AF1494), anti-β-actin (Sigma-Aldrich, A1978), anti-phospho-mTOR (Cell Signaling Technology, 5536S), anti-phospho-p44/42 MAPK (Erk1/2) (Cell Signaling Technology, 9106S), anti-mTOR (Cell Signaling Technology, 2972S) and anti-p44/42 MAPK (Erk1/2) (Cell Signaling Technology, 9102S). […] Protein bands were visualized using enhanced chemiluminescent substrate (Thermo Scientific, 32132, ECL Plus) and imaged with a charge-coupled device camera (G:BOX, Syngene).
# [6] = test system: dendritic arbor complexity of neuronal cultures; assay: Dendritogenesis (Sholl analysis) in neuronal cultures (WT and Y433F^+/−); format: cell-based, mouse; settings: for e6e group mean (dendritogenesis, Sholl analysis): BDNF; for e6e Mean Diff. (Veh. minus BDNF): uncorrected Fisher's LSD
# Experimental: In a separate set of experiments to study the effects of extracellular BDNF and 5-HT2A activation, cultures were also pretreated for 10 min with TrkB.FC (200 ng ml^−1) or M100907 (100 nM), respectively. Similar to treatment with the psychedelics, TrkB.FC and M100907 pretreatments were administered in cumulative doses and remained in the medium for the rest of the experiment. At DIV7, neurons were pre-incubated for 1 h with […] MgCl2 to prevent excitotoxicity, then neurons were transfected for the heterologous expression of mCherry. To minimize any possible interference of the transfection protocol upon the drug effect, transfection was done in the morning while treatment with psychedelics was always added in the evening. Twenty-four hours after transfection, neurons were fixed with 4% PFA for 20 min at room temperature, washed in PBS-T, blocked for 30 min with 3% BSA in PBS-T and incubated with chicken anti-MAP2 (Abcam, ab5392; 1:5,000, 1 h, room temperature). Then, coverslips were washed in PBS-T and incubated with Alexa Fluor 647-conjugated antibody goat anti-chicken (Invitrogen, A-21449; 1:1,000, 1 h, room temperature). Next, coverslips were washed in PBS-T and MilliQ water, and mounted in Dako fluorescence mounting medium (Agilent, S302380-2). Ten optical sections with a Z-step of 1.3 μm were acquired using a Zeiss LSM 710 confocal microscope with a LCI Plan/Neofluar 25×/0.8 lmm Korr DIC M27 objective. In the mCherry channel, the center of the soma was manually assigned and the number of dendritic intersections at fixed distances (every 5 μm) from the soma was automatically counted using the Sholl analysis plugin of ImageJ.
# [7] = target: the molecule itself; assay: NMR titration; 1H,15N-HSQC spectra of TrkB TMD in DMPC/DHPC bicelles at various lipid-to-protein ratios, 40 °C, pH 6.0; monomer to dimer
# [8] = ext fig 1f, competition curve, n=5
# T1 sequence (Q63604 32-821): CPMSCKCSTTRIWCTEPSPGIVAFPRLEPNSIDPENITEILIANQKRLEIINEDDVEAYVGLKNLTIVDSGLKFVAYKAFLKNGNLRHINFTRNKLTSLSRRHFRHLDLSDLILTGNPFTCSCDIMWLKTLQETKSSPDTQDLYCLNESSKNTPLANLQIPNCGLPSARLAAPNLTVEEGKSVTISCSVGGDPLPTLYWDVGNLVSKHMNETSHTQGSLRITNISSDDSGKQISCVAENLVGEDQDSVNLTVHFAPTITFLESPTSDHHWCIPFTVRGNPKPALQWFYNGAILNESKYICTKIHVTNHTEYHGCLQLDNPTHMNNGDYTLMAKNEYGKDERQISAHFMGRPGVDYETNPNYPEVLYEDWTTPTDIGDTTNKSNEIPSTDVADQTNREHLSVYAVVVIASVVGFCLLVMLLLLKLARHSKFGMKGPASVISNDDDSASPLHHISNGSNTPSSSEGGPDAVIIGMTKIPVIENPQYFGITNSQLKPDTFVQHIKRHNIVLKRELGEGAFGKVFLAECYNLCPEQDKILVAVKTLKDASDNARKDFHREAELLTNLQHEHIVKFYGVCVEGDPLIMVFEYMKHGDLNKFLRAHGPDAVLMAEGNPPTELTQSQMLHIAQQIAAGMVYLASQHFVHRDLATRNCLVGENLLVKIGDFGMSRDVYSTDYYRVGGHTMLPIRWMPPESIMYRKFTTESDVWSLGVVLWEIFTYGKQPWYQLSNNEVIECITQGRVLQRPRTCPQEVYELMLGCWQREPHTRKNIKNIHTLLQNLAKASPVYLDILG
# T2 sequence (Q63604 32-821): as above
# T2 sequence (Q63604 32-821): as above
molecule,measurement,setting,value
C=CCN1C[C@H](C(=O)N(CCCN(C)C)C(=O)NCC)C[C@@H]2c3cccc4[nH]cc(c34)C[C@H]21 [cabergoline],displacement of ^3H-LSD from TrkB,TrkB [1],fail to displace ^3H-LSD
same,"K (one phase exponential decay, best-fit)",TrkB [1],776405
same,"Plateau (one phase exponential decay, best-fit)",TrkB [1],113.3
same,"Span (one phase exponential decay, best-fit)",TrkB [1],-10.49
same,pKa,[2],6.22
"O=C(c1ccc(F)cc1)C1CCN(CCn2c(=O)[nH]c3ccccc3c2=O)CC1 [ketanserin, ketanserin (+)-tartrate]",displacement of ^3H-LSD from TrkB,TrkB [1],fail to displace LSD binding to TrkB
same,"Fit status, specific binding with Hill slope",TrkB [1]; ext fig 1f,Ambiguous
same,"Bmax (specific binding with Hill slope, best-fit)",TrkB [1]; [8],96.24
same,"h (Hill slope, best-fit)",TrkB [1]; [8],~ 0.3927
same,"displacement of biotinylated R,R-HNK from TrkB","TrkB [3]; biotinylated R,R-HNK 10 µM","not ketanserin, displace R,R-HNK binding to TrkB"
same,"K (one phase decay, best-fit)",TrkB [3]; ext fig 1g,1491612413
same,"Plateau (one phase decay, best-fit)",TrkB [3]; ext fig 1g,97.9
same,"Span (one phase decay, best-fit)",TrkB [3]; ext fig 1g,2.855
same,"Tau (one phase decay, best-fit)",TrkB [3]; ext fig 1g,6.70E-10
same,"Y0 (one phase decay, best-fit)",TrkB [3]; ext fig 1g,100.8
same,effect of pretreatment on LSD- and BDNF-induced TrkB dimerization,TrkB (WT) dimerization,fails to prevent the effects of LSD and BDNF on TrkB dimerization
same,effect on LSD effects on dendritic arbor complexity,[4],prevent the effects of LSD on dendritic arbor complexity
CN1C[C@H](C(=O)N[C@]2(C)O[C@@]3(O)[C@@H]4CCCN4C(=O)[C@H](Cc4ccccc4)N3C2=O)C[C@@H]2c3cccc4[nH]cc(c34)C[C@H]21 [dihydroergotamine],displacement of ^3H-LSD from TrkB,TrkB [1],fail to displace ^3H-LSD
same,"K (one phase exponential decay, best-fit)",TrkB [1],5.40E+07
same,"Plateau (one phase exponential decay, best-fit)",TrkB [1],93.57
same,"Span (one phase exponential decay, best-fit)",TrkB [1],15.09
same,pKa,[2],6.75
BDNF: Brain-derived neurotrophic factor,total TrkB expression,TrkB [5],No differences in total TrkB expression
same,"e6f Sholl profile, mean","[6]; WT + BDNF, distance from soma 10 µm",6.929
same,"e6f Sholl profile, mean","[6]; WT + BDNF, distance from soma 15 µm",9.643
same,"e6f Sholl profile, mean","[6]; WT + BDNF, distance from soma 20 µm",7.929
same,"e6f Sholl profile, mean","[6]; WT + BDNF, distance from soma 25 µm",7.929
same,"e6f Sholl profile, mean","[6]; WT + BDNF, distance from soma 30 µm",6
same,"e6f Sholl profile, mean","[6]; WT + BDNF, distance from soma 35 µm",4.5
same,"e6f Sholl profile, mean","[6]; WT + BDNF, distance from soma 40 µm",3.857
same,"e6f Sholl profile, mean","[6]; WT + BDNF, distance from soma 45 µm",3.571
same,"e6f Sholl profile, mean","[6]; WT + BDNF, distance from soma 50 µm",2.714
same,"e6f Sholl profile, mean","[6]; WT + BDNF, distance from soma 55 µm",2.429
same,"e6f Sholl profile, mean","[6]; WT + BDNF, distance from soma 60 µm",2.786
same,"e6f Sholl profile, mean","[6]; WT + BDNF, distance from soma 65 µm",2.643
same,"e6f Sholl profile, mean","[6]; WT + BDNF, distance from soma 70 µm",3.143
same,"e6f Sholl profile, mean","[6]; WT + BDNF, distance from soma 75 µm",2.929
same,"e6f Sholl profile, mean","[6]; WT + BDNF, distance from soma 80 µm",2.714
same,"e6f Sholl profile, mean","[6]; WT + BDNF, distance from soma 85 µm",2.786
same,"e6f Sholl profile, mean","[6]; WT + BDNF, distance from soma 90 µm",2.286
same,"e6f Sholl profile, mean","[6]; WT + BDNF, distance from soma 95 µm",1.857
same,"e6f Sholl profile, mean","[6]; WT + BDNF, distance from soma 100 µm",1.857
same,"e6e group mean (dendritogenesis, Sholl analysis)","[6]; WT neuronal cultures, n=14",78.5
same,e6e Mean Diff. (Veh. minus BDNF),[6]; WT:Veh. vs. WT:BDNF,-30.1
same,"e6f Sholl profile, mean","[6]; Y433F+/- + BDNF, distance from soma 10 µm",8.0625
same,"e6f Sholl profile, mean","[6]; Y433F+/- + BDNF, distance from soma 15 µm",9.4375
same,"e6f Sholl profile, mean","[6]; Y433F+/- + BDNF, distance from soma 20 µm",10.25
same,"e6f Sholl profile, mean","[6]; Y433F+/- + BDNF, distance from soma 25 µm",8.8125
same,"e6f Sholl profile, mean","[6]; Y433F+/- + BDNF, distance from soma 30 µm",8.1875
same,"e6f Sholl profile, mean","[6]; Y433F+/- + BDNF, distance from soma 35 µm",6.3125
same,"e6f Sholl profile, mean","[6]; Y433F+/- + BDNF, distance from soma 40 µm",5.375
same,"e6f Sholl profile, mean","[6]; Y433F+/- + BDNF, distance from soma 45 µm",5.1875
same,"e6f Sholl profile, mean","[6]; Y433F+/- + BDNF, distance from soma 50 µm",3.9375
same,"e6f Sholl profile, mean","[6]; Y433F+/- + BDNF, distance from soma 55 µm",3.6875
same,"e6f Sholl profile, mean","[6]; Y433F+/- + BDNF, distance from soma 60 µm",3.25
same,"e6f Sholl profile, mean","[6]; Y433F+/- + BDNF, distance from soma 65 µm",2.5625
same,"e6f Sholl profile, mean","[6]; Y433F+/- + BDNF, distance from soma 70 µm",2.5
same,"e6f Sholl profile, mean","[6]; Y433F+/- + BDNF, distance from soma 75 µm",1.875
same,"e6f Sholl profile, mean","[6]; Y433F+/- + BDNF, distance from soma 80 µm",2
same,"e6f Sholl profile, mean","[6]; Y433F+/- + BDNF, distance from soma 85 µm",1.625
same,"e6f Sholl profile, mean","[6]; Y433F+/- + BDNF, distance from soma 90 µm",1.4375
same,"e6f Sholl profile, mean","[6]; Y433F+/- + BDNF, distance from soma 95 µm",1.75
same,"e6f Sholl profile, mean","[6]; Y433F+/- + BDNF, distance from soma 100 µm",1.3125
same,"e6e group mean (dendritogenesis, Sholl analysis)","[6]; Y433F+/- neuronal cultures, n=16",87.56
same,e6e Mean Diff. (Veh. minus BDNF),[6]; Y433F+/-:Veh. vs. Y433F+/-:BDNF,-34.03
same,dendritic arbor complexity,[6]; cultures from WT mice,increases dendritic arbor complexity
same,dendritic arbor complexity,[6]; cultures from Y433F^+/− mice,increased dendritic arbor complexity
B1,binding result,[7],binds
